In paper PMC6934184, “Selective DNA-PKcs inhibition extends the therapeutic index of localized radiotherapy and chemotherapy” (The Journal of Clinical Investigation, 2019):

Molecular target: T1, GRK6 (Homo sapiens, UniProt P43250)
T1 construct: purchased Thermo Fisher Scientific (Life Technologies) SelectScreen
Test: SelectScreen Z'LYTE
Assay type: biochemical
In short: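 NU5455 was profiled across the SelectScreen Broad panel of kinase activity and binding assays. Z'LYTE reactions such as CSF1R ran at apparent Km ATP, while the Adapta CAMK1 assay used ATP listed as 10. Values are given as percent.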

T1 sequence (P43250 whole entry): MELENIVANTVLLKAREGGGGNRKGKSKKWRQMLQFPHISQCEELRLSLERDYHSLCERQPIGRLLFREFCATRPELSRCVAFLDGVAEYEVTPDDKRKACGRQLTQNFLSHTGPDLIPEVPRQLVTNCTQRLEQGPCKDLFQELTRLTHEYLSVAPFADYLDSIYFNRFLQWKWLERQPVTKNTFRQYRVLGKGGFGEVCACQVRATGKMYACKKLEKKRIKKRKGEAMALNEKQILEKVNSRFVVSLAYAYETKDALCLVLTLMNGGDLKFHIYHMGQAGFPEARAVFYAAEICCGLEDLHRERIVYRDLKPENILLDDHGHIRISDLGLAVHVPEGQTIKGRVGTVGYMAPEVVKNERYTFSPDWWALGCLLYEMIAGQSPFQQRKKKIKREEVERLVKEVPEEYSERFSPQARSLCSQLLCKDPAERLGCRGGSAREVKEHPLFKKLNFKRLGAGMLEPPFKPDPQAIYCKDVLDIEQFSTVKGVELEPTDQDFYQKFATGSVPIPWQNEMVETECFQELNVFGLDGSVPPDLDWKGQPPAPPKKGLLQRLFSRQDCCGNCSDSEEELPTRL

CN(C(=O)CN1CCOCC1)c1ccc2sc3c(-c4cccc5c(=O)cc(N6CC7CCC(C6)O7)oc45)cccc3c2c1 [NU5455]
inhibition at 1 µM: 3.7%
